# Read-outs that look alike come from different tables or passages of the source.
# Experiments:
# [1] = test system: circulating tumor cells (CTC); assay: Destruction of circulating tumor cells using cisplatin; assay type: cell-based, human; conditions: CTCs isolated with composition of example 33; 30 micrograms Cisplatin in 100 microliter PBS pH 7.4, two hours
# Description: (§1) 1.5 ml blood of a cancer patient was incubated with 300 micrograms of composition of example 33 for 5 minutes. CTCs were isolated using magnetic separation and cells were fixed with absolute ethanol and immuno-stained with cytokeratin (CK-18), leucocyte common antigen (CD-45) and with nuclear-staining probe 4′,6-diamidino-2-phenylindole (DAPI). Captured cells were imaged under fluorescence microscope, wherein 3 CTCs were isolated.
# as §1, with “incubated for two hours with 30 micrograms Cisplatin in 100 microliter phosphate buffered saline, pH 7.4, and the composition was” for “cells were”, “(DAPI) and” for “(DAPI). Captured cells were”, “microscope.” for “microscope, wherein 3 CTCs were isolated.”
# [2] = test system: Red Blood Cells from whole human blood; assay: Red Blood Cells hemolysis assay
# Description: Red Blood Cells from whole human blood were separated by centrifugation at room temperature and washed in sodium chloride solution two times and resuspended in phosphate buffer saline with pH 7.4. The resuspended red blood cells were incubated with the composition to be evaluated for 30 minutes at 37° C. The samples were centrifuged and the supernatant collected and analyzed for hemolysis using UV spectroscopy. The percentage of hemolysis was estimated against a negative control phosphate buffer saline with pH 7.4 and positive control 0.5% Triton-X100 prepared in phosphate-buffered saline with pH 7.4.
# Red Blood Cells from whole human blood (5 milliliter) were separated by centrifugation (500×g, 5 minutes) at room temperature and washed in 150 mM sodium chloride (NaCl) solution two times and resuspended in a total final volume of 5 milliliter with phosphate buffered saline with pH 7.4. The resuspended red blood cells were incubated by mixing with materials listed in Table 1 for 30 minutes at 37° C. The samples were centrifuged (500×g, 5 minutes, room temperature), and supernatants were collected and analyzed for hemolysis using UV spectroscopy at spectra 540 nm. The percentage hemolysis was estimated against a negative control phosphate buffered saline with pH 7.4 and positive control 0.5% Triton-X100.
compound,measurement,setting,value
N.N.[Cl][Pt][Cl] [Cisplatin],CTCs observed after incubation with the drug,[1],No CTCs were observed
Triton-X100,Percentage Hemolysis,[2],100%
CCO[Si](CCCN)(OCC)OCC [(3-Aminopropyl)triethoxysilane],Percentage Hemolysis,"[2]; sample amount 0.5%, 30 minutes at 37° C.",0%
same,Percentage Hemolysis,"[2]; sample amount 10%, 30 minutes at 37° C.",36%
